In patent publication US12643905B2, “Spiropyrrolidine derived antiviral agents” (priority 2021, dated 2026):

How the values were obtained:
SARS-CoV-2 3CL-protease = SARS-CoV-2 3CL-protease (Severe acute respiratory syndrome coronavirus 2, UniProt P0DTD1); experiment: SARS-CoV-2 3C-like (3CL) protease fluorescence assay (FRET); assay type: biochemical; conditions: recombinant SARS-CoV-2 3CL-protease 10 nM, 30 min preincubation, run in duplicate; read-out: FRET IC50
[1] = test system: 229E human corona virus (hCoV); experiment: 229E live virus assay (CPE, ATPlite readout in MRC-5 cells); assay type: cell-based, hCoV-229E; conditions: Human coronavirus 229E, MRC5, 144 h, MOI 0.05, 6 days at 34° C., run in duplicate

| Compound | IC50 (SARS-CoV-2 3CL-protease) [nM] | EC50 [1] [nM] |
| --- | --- | --- |
| N#C[C@@H]1C[C@@]2(CN1C(=O)[C@H](CC1CC1)NC(=O)C(=O)NC1(c3ccc(F)cc3F)CC1)C(=O)Nc1ccccc12 [Example 74] | < 100 | < 100 |
| CCCC[C@H](NC(=O)C(=O)Nc1ccc(F)cc1C(F)(F)F)C(=O)N1C[C@]2(C[C@H]1C#N)C(=O)Nc1ccccc12 [Example 75] | < 100 | < 100 |
| CCCC[C@H](NC(=O)C(=O)NC1(c2ccc(F)cc2F)CC1)C(=O)N1C[C@]2(C[C@H]1C#N)C(=O)Nc1ccccc12 [Example 76] | < 100 | < 100 |
| N#C[C@@H]1C[C@@]2(CN1C(=O)[C@H](CC1CC1)NC(=O)C(=O)Nc1ccc(F)cc1C(F)(F)F)C(=O)Nc1ccccc12 [Example 77] | < 100 | < 100 |
| Cc1cccc(C)c1NC(=O)C(=O)N[C@@H](CC(C)(C)C)C(=O)N1C[C@]2(C[C@H]1C#N)C(=O)Nc1ccccc12 [Example 84] | < 100 | < 100 |
| CC(C)(C)C[C@H](NC(=O)C(=O)Nc1ccc2cc(F)ccc2c1)C(=O)N1C[C@]2(C[C@H]1C#N)C(=O)Nc1ccccc12 [Example 85] | < 100 | < 100 |
| CCC(C)NC(=O)C(=O)N[C@@H](CC(C)(C)C)C(=O)N1C[C@]2(C[C@H]1C#N)C(=O)Nc1ccccc12 (stereo partly shown) [Example 88] | < 100 | < 100 |
| CC(C)(C)C[C@H](NC(=O)C(=O)Nc1cccc(F)c1)C(=O)N1C[C@]2(C[C@H]1C#N)C(=O)Nc1ccccc12 [Example 89] | < 100 | < 100 |
| CC(C)(C)C[C@H](NC(=O)C(=O)Nc1ccccc1F)C(=O)N1C[C@]2(C[C@H]1C#N)C(=O)Nc1ccccc12 [Example 90] | < 100 | < 100 |
| CC(C)(C)C[C@H](NC(=O)C(=O)Nc1c(F)cc(F)cc1F)C(=O)N1C[C@]2(C[C@H]1C#N)C(=O)Nc1ccccc12 [Example 92] | < 100 | < 100 |
| CC(C)(C)C[C@H](NC(=O)C(=O)Nc1ccc(F)cc1)C(=O)N1C[C@]2(C[C@H]1C#N)C(=O)Nc1ccccc12 [Example 93] | < 100 | < 100 |
| CC(C)(C)C[C@H](NC(=O)C(=O)Nc1ccc(F)cc1F)C(=O)N1C[C@]2(C[C@H]1C#N)C(=O)Nc1ccccc12 [Example 94] | < 100 | < 100 |
| CC(C)(C)C[C@H](NC(=O)C(=O)Nc1ccc2ccccc2c1)C(=O)N1C[C@]2(C[C@H]1C#N)C(=O)Nc1ccccc12 [Example 96] | < 100 | < 100 |
| CC(C)(C)C[C@H](NC(=O)C(=O)NC1CCCCC1)C(=O)N1C[C@]2(C[C@H]1C#N)C(=O)Nc1ccccc12 [Example 97] | < 100 | < 100 |
| CC(C)(C)C[C@H](NC(=O)C(=O)NC1CCCC1)C(=O)N1C[C@]2(C[C@H]1C#N)C(=O)Nc1ccccc12 [Example 98] | < 100 | < 100 |
| CC(C)C[C@H](NC(=O)C(=O)Nc1ccc(F)cc1)C(=O)N1C[C@]2(C[C@H]1C#N)C(=O)Nc1ccccc12 [Example 115] | < 100 | < 100 |
| CC(C)[C@H](NC(=O)C(=O)N[C@@H](CC(C)(C)C)C(=O)N1C[C@]2(C[C@H]1C#N)C(=O)Nc1ccccc12)c1ccccc1 [Example 116] | < 100 | < 100 |
| CC(C)(C)C[C@H](NC(=O)C(=O)Nc1c(Cl)cccc1Cl)C(=O)N1C[C@]2(C[C@H]1C#N)C(=O)Nc1ccccc12 [Example 117] | < 100 | < 100 |
| CC(C)(C)C[C@H](NC(=O)C(=O)NC1(c2ccccc2)CC1)C(=O)N1C[C@]2(C[C@H]1C#N)C(=O)Nc1ccccc12 [Example 118] | < 100 | < 100 |

| Compound | IC50 (SARS-CoV-2 3CL-protease) [nM] | EC50 [1] [nM] |
| --- | --- | --- |
| CC(C)(C)C[C@H](NC(=O)C(=O)NC1(c2ccccc2)CCC1)C(=O)N1C[C@]2(C[C@H]1C#N)C(=O)Nc1ccccc12 [Example 119] | < 100 | < 100 |
| CC(C)(C)C[C@H](NC(=O)C(=O)NC1CC(F)(F)C1)C(=O)N1C[C@]2(C[C@H]1C#N)C(=O)Nc1ccccc12 [Example 120] | < 100 | < 100 |
| CC(C)(C)C[C@H](NC(=O)C(=O)Nc1c(C(F)(F)F)cccc1C(F)(F)F)C(=O)N1C[C@]2(C[C@H]1C#N)C(=O)Nc1ccccc12 [Example 138] | < 100 | < 100 |
| CC(C)(C)C[C@H](NC(=O)C(=O)NCc1ccccc1)C(=O)N1C[C@]2(C[C@H]1C#N)C(=O)Nc1ccccc12 [Example 159] | < 100 | < 100 |
| C[C@@H](NC(=O)C(=O)N[C@@H](CC(C)(C)C)C(=O)N1C[C@]2(C[C@H]1C#N)C(=O)Nc1ccccc12)c1ccccc1 [Example 160] | < 100 | < 100 |
| C[C@H](NC(=O)C(=O)N[C@@H](CC(C)(C)C)C(=O)N1C[C@]2(C[C@H]1C#N)C(=O)Nc1ccccc12)c1ccccc1 [Example 161] | < 100 | < 100 |
| CC(C)(C)C[C@H](NC(=O)C(=O)c1ccccc1)C(=O)N1C[C@]2(C[C@H]1C#N)C(=O)Nc1ccccc12 [Example 179] | 100 to 1000 | 100 to 1000 |
| CC(C)(C)C[C@H](NC(=O)C(=O)C(C)(C)C)C(=O)N1C[C@]2(C[C@H]1C#N)C(=O)Nc1ccccc12 [Example 180] | > 1000 | 100 to 1000 |
| CC(C)(C)C[C@H](NC(=O)C(=O)c1c[nH]c2ccccc12)C(=O)N1C[C@]2(C[C@H]1C#N)C(=O)Nc1ccccc12 [Example 181] | 100 to 1000 | 100 to 1000 |
| CC(C)(C)C[C@H](NC(=O)C(=O)c1ccccc1F)C(=O)N1C[C@]2(C[C@H]1C#N)C(=O)Nc1ccccc12 [Example 182] | 100 to 1000 | 100 to 1000 |
| CC(C)(C)C[C@H](NC(=O)C(=O)C1CCCCC1)C(=O)N1C[C@]2(C[C@H]1C#N)C(=O)Nc1ccccc12 [Example 183] | < 100 | 100 to 1000 |
| [2H]C([2H])([2H])N(C(=O)C(=O)NCc1ccc(F)cc1F)[C@@H](CC1CC1)C(=O)N1C[C@]2(C[C@H]1C#N)C(=O)Nc1ccccc12 [Example 190] | < 100 | < 100 |
| [2H]C([2H])([2H])N(C(=O)C(=O)NC1(c2ccc(F)cc2F)CC1)[C@@H](CC1CC1)C(=O)N1C[C@]2(C[C@H]1C#N)C(=O)Nc1ccccc12 [Example 191] | < 100 | < 100 |
| [2H]C([2H])([2H])N(C(=O)C(=O)NCC1(C(F)(F)F)CC1)[C@@H](CC1CC1)C(=O)N1C[C@]2(C[C@H]1C#N)C(=O)Nc1ccccc12 [Example 192] | < 100 | < 100 |
| [2H]C([2H])([2H])N(C(=O)C(=O)Nc1c(C(F)(F)F)cccc1C(F)(F)F)[C@@H](CC1CC1)C(=O)N1C[C@]2(C[C@H]1C#N)C(=O)Nc1ccccc12 [Example 193] | < 100 | < 100 |
| CC(C)C[C@H]1C(=O)N2C[C@]3(C[C@H]2C#N)C(=O)Nc2ccc(cc23)CCCCNC(=O)C(=O)N1C [Example 211] | 100 to 1000 | 100 to 1000 |
| CC(C)C[C@H]1C(=O)N2C[C@]3(C[C@H]2C#N)C(=O)Nc2ccc(cc23)CCCCN(Cc2ccccc2)C(=O)C(=O)N1C [Example 212] | 100 to 1000 | 100 to 1000 |
| CC(C)C[C@H]1C(=O)N2C[C@]3(C[C@H]2C#N)C(=O)Nc2ccc(cc23)CCCCCNC(=O)C(=O)N1C [Example 213] | 100 to 1000 | 100 to 1000 |
| CC(C)C[C@H]1C(=O)N2C[C@]3(C[C@H]2C#N)C(=O)Nc2ccc(cc23)/C=C\CCNC(=O)C(=O)N1C [Example 214] | 100 to 1000 | 100 to 1000 |
